Reference: patent US20200055839A1 (priority 2017, published 2020)

Tested on: NL-RLuc virus
Test: Inhibition of HIV replication (NL-RLuc virus, luciferase readout in MT-2 cells)
Type: cell-based
Details: Human immunodeficiency virus 1, MT2, 120 h, MT-2 cells infected with NL-RLuc virus, 5 days of incubation, 10% FBS, at least 2 experiments
Outline: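 EC50 derived via median effect equation from at least 2 experiments, using luciferase expression as virus-growth readout. Replication-competent NL-RLuc reporter virus (nef partly replaced by Renilla luciferase) infected MT-2 cells with serial compound dilutions; 5-day incubation in RPMI 1640 plus 10% FBS.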

Question: Which EC50 does the source give for `Cc1ncc(-c2cc(F)c(F)c(F)c2)c(N2CCC(C)(C)CC2)c1[C@H](OC(C)(C)C)C(=O)O` [Example 129, (2S)-2-(tert-Butoxy)-2-[4-(4,4-dimethylpiperidin-1-yl)-2-methyl-5-(3,4,5-trifluorophenyl)pyridin-3-yl]acetic acid] here?
Answer: The EC50 was 3 nM.

Question: `Cc1nc(-c2ccnn2C)c(-c2ccc(OCCc3ccc(F)cc3)cc2)c(N2CCC(C)(C)CC2)c1[C@H](OC(C)(C)C)C(=O)O` [Example 50, (S)-2-(tert-Butoxy)-2-(4-(4,4-dimethylpiperidin-1-yl)-5-(4-(4-fluorophenethoxy)phenyl)-2-methyl-6-(1-methyl-1H-pyrazol-5-yl)pyridin-3-yl)acetic acid] was tested. Which EC50 did it give?
Answer: The EC50 was 2 nM.

Question: `Cc1cccnc1Nc1nc(C)c([C@H](OC(C)(C)C)C(=O)O)c(N2CCC(C)(C)CC2)c1-c1ccc(OCCc2ccc(F)cc2)cc1` [Example 65, (S)-2-(tert-Butoxy)-2-(4-(4,4-dimethylpiperidin-1-yl)-5-(4-(4-fluorophenethoxy)phenyl)-2-methyl-6-((3-methylpyridin-2-yl)amino)pyridin-3-yl)acetic acid] was tested. Which EC50 did it give?
Answer: Its EC50 is 2 nM.

Question: For `Cc1nc(NC2CCN(S(C)(=O)=O)CC2)c(-c2ccc(OCCc3ccc(F)cc3)cc2)c(N2CCC(C)(C)CC2)c1[C@H](OC(C)(C)C)C(=O)O` [Example 99, (S)-2-(tert-Butoxy)-2-(4-(4,4-dimethylpiperidin-1-yl)-5-(4-(4-fluorophenethoxy)phenyl)-2-methyl-6-((1-(methylsulfonyl)piperidin-4-yl)amino)pyridin-3-yl)acetic acid], which EC50 is on record?
Answer: The EC50 was 0.6 nM.

Question: How did the EC50 turn out when `Cc1ncc(-c2cc(F)c(OCCc3ccc(F)cc3)c(F)c2)c(N2CCC(C)(C)CC2)c1[C@H](OC(C)(C)C)C(=O)O` [Example 127, (S)-2-(tert-Butoxy)-2-(5-(3,5-difluoro-4-(4-fluorophenethoxy)phenyl)-4-(4,4-dimethylpiperidin-1-yl)-2-methylpyridin-3-yl)acetic acid] was run?
Answer: The EC50 was 4 nM.

Question: Which EC50 does the source give for `CC1(C)CCN(c2c(-c3ccc(OCCc4ccc(F)cc4)cc3)cnc(N3CCCC3)c2[C@H](OC(C)(C)C)C(=O)O)CC1` [Example 202, (S)-2-(tert-Butoxy)-2-(4-(4,4-dimethylpiperidin-1-yl)-5-(4-(4-fluorophenethoxy)phenyl)-2-(pyrrolidin-1-yl)pyridin-3-yl)acetic acid] here?
Answer: The EC50 was 75 nM.

Question: With `Cc1ncc(-c2cnc(OC(C)CC(C)C)c(F)c2)c(N2CCC(C)(C)CC2)c1[C@H](OC(C)(C)C)C(=O)O` (stereo partly drawn) [Example 384, (2S)-2-(tert-butoxy)-2-[4-(4,4-dimethylpiperidin-1-yl)-5′-fluoro-6-methyl-6′-[(4-methylpentan-2-yl)oxy]-[3,3′-bipyridine]-5-yl]acetic acid] as the compound, how does the EC50 read?
Answer: The EC50 was 9 nM.

Question: `Cc1nc(-c2cnn(C3CC3)c2)c(-c2ccc(OCCc3ccc(F)cc3)cc2)c(N2CCC(C)(C)CC2)c1[C@H](OC(C)(C)C)C(=O)O` [Example 47, (S)-2-(tert-Butoxy)-2-(6-(1-cyclopropyl-H-pyrazol-4-yl)-4-(4,4-dimethylpiperidin-1-yl)-5-(4-(4-fluorophenethoxy)phenyl)-2-methylpyridin-3-yl)acetic acid] was tested. Which EC50 did it give?
Answer: Its EC50 is 4 nM.

Question: How did the EC50 turn out when `Cc1ncc(-c2ccc(C(F)(F)CC(C)C)nc2)c(N2CCC(C)(C)CC2)c1[C@H](OC(C)(C)C)C(=O)O` [Example 430, (S)-2-tert-Butoxy-2-(6′-(1,1-difluoro-3-methylbutyl)-4-(4,4-dimethylpiperidin-1-yl)-6-methyl-3, 3′-bipyridin-5-yl)acetic acid] was run?
Answer: Its EC50 is 16 nM.

Question: How did the EC50 turn out when `CCC(C)(C)O[C@H](C(=O)O)c1c(C)ncc(-c2ccc(OCCc3ccccc3)cc2)c1N1CCC(C)(C)CC1` [Example 264, (S)-2-(4-(4,4-Dimethylpiperidin-1-yl)-2-methyl-5-(4-phenethoxyphenyl)pyridin-3-yl)-2-(tert-pentyloxy)acetic acid] was run?
Answer: The EC50 was 3 nM.

Question: With `COc1ccccc1-c1cnc(C)c([C@H](OC(C)(C)C)C(=O)O)c1N1CCC(C)(C)CC1` [Example 167, (2S)-2-(tert-Butoxy)-2-[4-(4,4-dimethylpiperidin-1-yl)-5-(2-methoxyphenyl)-2-methylpyridin-3-yl]acetic acid] as the compound, how does the EC50 read?
Answer: Its EC50 is 5 nM.

Question: How did the EC50 turn out when `Cc1ncc(-c2ccc(O[C@H](C)c3ccccc3)cn2)c(N2CCC(C)(C)CC2)c1[C@H](OC(C)(C)C)C(=O)O` [Example 350, (2S)-2-(tert-butoxy)-2-[4′-(4,4-dimethylpiperidin-1-yl)-6′-methyl-5-[(1R)-1-phenylethoxy]-[2,3′-bipyridine]-5′-yl]acetic acid] was run?
Answer: The EC50 was 3 nM.

Question: Which EC50 does the source give for `Cc1ncc(-c2ccc(OCC(C)C)nc2F)c(N2CCC(C)(C)CC2)c1[C@H](OC(C)(C)C)C(=O)O` [Example 434, (2S)-2-tert-Butoxy-2-(4-(4,4-dimethylpiperidin-1-yl)-2′-fluoro-6′-isobutoxy-6-methyl-3, 3′-bipyridin-5-yl)acetic acid] here?
Answer: Its EC50 is 13 nM.

Question: How did the EC50 turn out when `Cc1ncc(-c2cnc(OCCc3c(F)cc(F)cc3F)c(F)c2)c(N2CCC(C)(C)CC2)c1[C@H](OC(C)(C)C)C(=O)O` [Example 404, (2S)-2-(tert-butoxy)-2-[4-(4,4-dimethylpiperidin-1-yl)-5′-fluoro-6-methyl-6′-[2-(2,4,6-trifluorophenyl)ethoxy]-[3,3′-bipyridine]-5-yl]acetic acid] was run?
Answer: The EC50 was 3 nM.

Question: Which EC50 does the source give for `Cc1ncc(-c2ccc(NCCc3ccc(F)cc3)nc2)c(N2CCC(C)(C)CC2)c1[C@H](OC(C)(C)C)C(=O)O` [Example 110, (S)-2-(tert-Butoxy)-2-(4-(4,4-dimethylpiperidin-1-yl)-6′-((4-fluorophenethyl)amino)-6-methyl-[3, 3′-bipyridin]-5-yl)acetic acid] here?
Answer: Its EC50 is 2 nM.

Question: Which EC50 does the source give for `Cc1nc(CO)c(-c2ccc(OCCc3ccc(F)cc3)c(F)c2)c(N2CCC(C)(C)CC2)c1[C@H](OC(C)(C)C)C(=O)O` [Example 230, (S)-2-(tert-Butoxy)-2-(4-(4,4-dimethylpiperidin-1-yl)-5-(3-fluoro-4-(4-fluorophenethoxy)phenyl)-6-(hydroxymethyl)-2-methylpyridin-3-yl)acetic acid] here?
Answer: Its EC50 is 3 nM.

Question: How did the EC50 turn out when `Cc1nc(NCCN(C)C)c(-c2ccc(OCCc3ccc(F)cc3)cc2)c(N2CCC(C)(C)CC2)c1[C@H](OC(C)(C)C)C(=O)O` [Example 28, (S)-2-(tert-Butoxy)-2-(6-((2-(dimethylamino)ethyl)amino)-4-(4,4-dimethylpiperidin-1-yl)-5-(4-(4-fluorophenethoxy)phenyl)-2-methylpyridin-3-yl)acetic acid] was run?
Answer: Its EC50 is 0.7 nM.

Question: How did the EC50 turn out when `Cc1nc(Nc2cc(F)ccn2)c(-c2ccc(OCCc3ccc(F)cc3)cc2)c(N2CCC(C)(C)CC2)c1[C@H](OC(C)(C)C)C(=O)O` [Example 81, (S)-2-(tert-Butoxy)-2-(4-(4,4-dimethylpiperidin-1-yl)-5-(4-(4-fluorophenethoxy)phenyl)-6-((4-fluoropyridin-2-yl)amino)-2-methylpyridin-3-yl)acetic acid] was run?
Answer: Its EC50 is 11 nM.

Question: Which EC50 does the source give for `Cc1ncc(-c2cnc(OCCc3ccc(F)cc3)c(F)c2)c(N2CCC(C)(C)CC2)c1[C@H](OC(C)(C)C)C(=O)O` [Example 118, (S)-2-(tert-Butoxy)-2-(4-(4,4-dimethylpiperidin-1-yl)-5′-fluoro-6′-(4-fluorophenethoxy)-6-methyl-[3, 3′-bipyridin]-5-yl)acetic acid] here?
Answer: Its EC50 is 1 nM.

Question: How did the EC50 turn out when `Cc1ncc(-c2ccc(OCc3ccc(Cl)cc3)cn2)c(N2CCC(C)(C)CC2)c1[C@H](OC(C)(C)C)C(=O)O` [Example 338, (2S)-2-(tert-butoxy)-2-{5-[(4-chlorophenyl)methoxy]-4′-(4,4-dimethylpiperidin-1-yl)-6′-methyl-[2,3′-bipyridine]-5′-yl}acetic acid] was run?
Answer: Its EC50 is 1 nM.

Question: How did the EC50 turn out when `Cc1ncc(-c2ccc(O[C@H](C)C(C)C)cc2)c(N2CCC(C)(C)CC2)c1[C@H](OC(C)(C)C)C(=O)O` [Example 362, (2S)-2-(tert-butoxy)-2-[4-(4,4-dimethylpiperidin-1-yl)-2-methyl-5-(4-{[(2R)-3-methylbutan-2-yl]oxy}phenyl)pyridin-3-yl]acetic acid] was run?
Answer: Its EC50 is 8 nM.

Question: With `COc1cccc(CCOc2ncc(-c3cnc(C)c([C@H](OC(C)(C)C)C(=O)O)c3N3CCC(C)(C)CC3)cc2F)c1` [Example 383, (2S)-2-(tert-butoxy)-2-[4-(4,4-dimethylpiperidin-1-yl)-5′-fluoro-6′-[2-(3-methoxyphenyl)ethoxy]-6-methyl-[3,3′-bipyridine]-5-yl]acetic acid] as the compound, how does the EC50 read?
Answer: The EC50 was 3 nM.

Question: For `Cc1ncc(-c2ccc(OCCC(C)(C)C)cn2)c(N2CCC(C)(C)CC2)c1[C@H](OC(C)(C)C)C(=O)O` [Example 316, (2S)-2-(tert-butoxy)-2-[5-(3,3-dimethylbutoxy)-4′-(4,4-dimethylpiperidin-1-yl)-6′-methyl-[2,3′-bipyridine]-5′-yl]acetic acid], which EC50 is on record?
Answer: The EC50 was 2 nM.

Question: For `COc1cccc(CCOc2ccc(-c3cnc(C)c([C@H](OC(C)(C)C)C(=O)O)c3N3CCC(C)(C)CC3)nc2)c1` [Example 301, (2S)-2-(tert-butoxy)-2-[4′-(4,4-dimethylpiperidin-1-yl)-5-[2-(3-methoxyphenyl)ethoxy]-6′-methyl-[2,3′-bipyridine]-5′-yl]acetic acid], which EC50 is on record?
Answer: Its EC50 is 1 nM.

Question: With `Cc1ncc(-c2ccc(OCCc3cccc(F)c3)cn2)c(N2CCC(C)(C)CC2)c1[C@H](OC(C)(C)C)C(=O)O` [Example 304, (2S)-2-(tert-butoxy)-2-[4′-(4,4-dimethylpiperidin-1-yl)-5-[2-(3-fluorophenyl)ethoxy]-6′-methyl-[2,3′-bipyridine]-5′-yl]acetic acid] as the compound, how does the EC50 read?
Answer: Its EC50 is 0.5 nM.

Question: For `Cc1ncc(-c2ccc(OCCc3cccc(Cl)c3)cc2)c(N2CCC(C)(C)CC2)c1[C@H](OC(C)(C)C)C(=O)O` [Example 364, (2S)-2-(tert-butoxy)-2-(5-{4-[2-(3-chlorophenyl)ethoxy]phenyl}-4-(4,4-dimethylpiperidin-1-yl)-2-methylpyridin-3-yl)acetic acid], which EC50 is on record?
Answer: The EC50 was 2 nM.

Same assay, conditions: MT-2 cells infected with NL-RLuc virus, 5 days of incubation, 10% FBS, at least 2 experiments

Question: How did the EC50 turn out when `Cc1ncc(-c2cnc(NCCc3ccc(F)cc3)c(F)c2)c(N2CCC(C)(C)CC2)c1[C@H](OC(C)(C)C)C(=O)O` [Example 121, (S)-2-(tert-Butoxy)-2-(4-(4,4-dimethylpiperidin-1-yl)-5′-fluoro-6′-((4-fluorophenethyl)amino)-6-methyl-[3, 3′-bipyridin]-5-yl)acetic acid] was run?
Answer: The EC50 was 2 nM.
